Test results reported in patent publication US5641480A, “Hair care compositions comprising heteroatom containing alkyl aldonamide compounds” (Lever Brothers Company, Division of Conopco, Inc., priority 1994, dated 1997).

Legend:
[1] = Ross-Miles foam height assay of aldonamides (Examples 81-84); type: physicochemical; settings: 0.1% aldonamide, 40° C. (if not soluble, about 5°-10° C. above Krafft point), 0 ppm hardness; for Foam Height Final: after 10 minutes
Protocol: In the Ross-Miles method, 200 mL of a suffactant solution contained in a pipette of specified dimensions with a 2.9 -mm-i.d. orifice is allowed to fall 90 cm onto 50 mL of the same solution contained in a cylindrical vessel maintained at a given temperature by means of a water jacket. The height of the foam produced in the cylindrical vessel is read immediately after all the solution has run out of the pipette and then again after a given amount of time.
Using this method, the foam production (initial foam height in mm) and foam stability (final foam height after 10 minutes in mm) were measured at 0.1% aldonamtde concentration, 40° C. and 0 ppm (parts per million) hardness.

[2] = Krafft point determination; type: physicochemical; settings: 0.1% in water
Protocol: The temperature at and above which surfactants begin to form micelles instead of precipitates is referred to as the Krafft point (Tk) and at this temperature the solubility of a surfactant becomes equal to its CMC (numerical value at which micelles are formed).
The Krafft point was measured by preparing 650 ml of a 0.1% or 1.0% dispersion of aldonamide in water by weight. If the surfactant was soluble at room temperature, the solution was slowly cooled to 0° C. […] (less than zero). If it precipitated out of solution, the temperature at which precipitation occurs was taken as the Krafft point.
If the surfactant was insoluble at room temperature, the dispersion was slowly heated until the solution became homogeneous. It was then slowly cooled until precipitation occurred. The temperature at which the surfactant precipitates out of solution upon cooling was taken as the Krafft point.

| Foam Height Initial [1] | Foam Height Final [1] [mm] | Krafft Point (0.1%) [2] [°C] | Compound |
| --- | --- | --- | --- |
| 184 mm | 103 |  | CCCCCCCCCCCCNC(=O)[C@H](O)[C@H](O)[C@H](O)CO [C12 Ribonamide, Dodecyl D-Ribonamide] |
| 0 mm | 0 |  | CCCCC(CC)COCCCNC(=O)[C@H](O)[C@@H](O)[C@H](O)[C@H](O)CO (stereo partly drawn) [Ethylhexyloxypropyl D-Gluconamide] |
| 185 mm | 111 |  | CCCCCCCCCCCC(=O)OCCNC(=O)[C@H](O)[C@@H](O)[C@H](O)[C@H](O)CO [N--D-Gluconyl C12 Ester of Ethanolamine, N-D-gluconyl dodecyl ester of ethanolamine] |
| 163 mm | 154 | < 0 | CCCCCCCCCCCCCCOCCCNC(=O)[C@H](O)[C@@H](O)[C@H](O[C@@H]1O[C@H](CO)[C@H](O)[C@H](O)[C@H]1O)[C@H](O)CO [C14 Oxypropyl D-Lactobionamide, Tetradecyloxypropyl D-Lactobionamide] |
|  |  | 84 | CCCCCCCCCCCCCCCNC(=O)[C@H](O)[C@@H](O)[C@H](O[C@@H]1O[C@H](CO)[C@H](O)[C@H](O)[C@H]1O)[C@H](O)CO [C15 D-Lactobionamide] |
| 0 mm | 0 | 61 | CCCCCCCCCCCNC(=O)[C@H](O)[C@@H](O)[C@H](O[C@@H]1O[C@H](CO)[C@H](O)[C@H](O)[C@H]1O)[C@H](O)CO [C11 D-Lactobionamide] |
|  |  | 82 | CCCCCCCCCCCCCCCCCCNC(=O)[C@H](O)[C@@H](O)[C@H](O[C@@H]1O[C@H](CO)[C@H](O)[C@H](O)[C@H]1O)[C@H](O)CO [C18 D-Lactobionamide] |
| 217 mm | 200 |  | Octyl/Decyloxypropyl D-Ribonamide [C8 /C10 Oxypropyl D-Ribonamide] |
| 0 mm | 0 |  | CCCCCCCNC(=O)[C@H](O)[C@@H](O)[C@H](O)[C@H](O)CO [C7 D-Gluconamide] |
| 169 mm | 165 | < 0 | CCCCCCCC/C=C\CCCCCCCCNCCCNC(=O)[C@H](O)[C@@H](O)[C@H](O[C@@H]1O[C@H](CO)[C@H](O)[C@H](O)[C@H]1O)[C@H](O)CO [Oleylaminopropyl D-Lactobionamide] |
| 0 mm | 0 | 42 | CCCCCCCCCNC(=O)[C@H](O)[C@@H](O)[C@H](O[C@@H]1O[C@H](CO)[C@H](O)[C@H](O)[C@H]1O)[C@H](O)CO [C9 D-Lactobionamide, Nonyl D-Lactobionamide] |
| 161 mm | 153 | < 0 | CCCCCCCCCCCCOC(=O)CNC(=O)[C@H](O)[C@@H](O)[C@H](O[C@@H]1O[C@H](CO)[C@H](O)[C@H](O)[C@H]1O)[C@H](O)CO [D-Lactobionyl C12 Glycinate, N-D-Lactobionyl Dodecyl Glycinate] |
| 171 mm | 168 | < 0 | Cocoaminopropyl D-Lactobionamide |
| 163 mm | 155 | < 0 | CCCCCCCCCCCCOCCCNC(=O)[C@H](O)[C@@H](O)[C@H](O[C@H]1O[C@H](CO)[C@@H](O)[C@H](O)[C@H]1O)[C@H](O)CO [C12 Oxypropyl D-Maltobionamide, Dodecyloxypropyl D-Maltobionamide] |
| 141 mm | 59 | 18 | CCCCCCCCCCCCCCNC(=O)[C@H](O)[C@@H](O)[C@H](O[C@@H]1O[C@H](CO)[C@H](O)[C@H](O)[C@H]1O)[C@H](O)CO [C14 D-Lactobionamide] |
|  |  | 70 | CCCCCCCCCCCCCNC(=O)[C@H](O)[C@@H](O)[C@H](O[C@@H]1O[C@H](CO)[C@H](O)[C@H](O)[C@H]1O)[C@H](O)CO [C13 D-Lactobionamide] |
| 180 mm | 176 |  | dodecyl to pentadecyloxypropylaminopropyl D-gluconamide |
| 183 mm | 107 |  | CCCCCCCCCCCCOC(=O)CNC(=O)[C@H](O)[C@@H](O)[C@H](O)[C@H](O)CO [N--D-Gluconyl C12 Glycinate, N-D-Gluconyl Dodecyl Glycinate] |
| 153 mm | 20 | 38 | CCCCCCCCCCCCNC(=O)[C@H](O)[C@@H](O)[C@H](O[C@@H]1O[C@H](CO)[C@H](O)[C@H](O)[C@H]1O)[C@H](O)CO [C12 D-Lactobionamide] |

| Foam Height Initial [1] | Foam Height Final [1] [mm] | Krafft Point (0.1%) [2] [°C] | Compound |
| --- | --- | --- | --- |
|  |  | 46 | CCCCCCCCCCCCCCNC(=O)[C@H](O)[C@@H](O)[C@H](O[C@H]1O[C@H](CO)[C@@H](O)[C@H](O)[C@H]1O)[C@H](O)CO [C14 D-Maltobionamide] |
| Insoluble |  |  | CCCCCCCCCCCCCCCCCCNC(=O)[C@H](O)[C@@H](O)[C@H](O)[C@H](O)CO [C18 D-Gluconamide] |
| Insoluble |  |  | CCCCCCCCCCCCNC(=O)[C@H](O)[C@H](O)[C@@H](O)[C@@H](O)CO [C12 L-Mannonamide] |
| 158 mm | 84 |  | CCCCCCCC/C=C\CCCCCCCCNCCCNC(=O)[C@H](O)[C@@H](O)[C@H](O)[C@H](O)CO [Oleylaminopropyl D-Gluconamide] |
| 197 mm | 112 |  | CCCCCCCCCCCCOC(=O)C(C)NC(=O)[C@H](O)[C@@H](O)[C@H](O)[C@H](O)CO (mixture of isomers) [N--D-Gluconyl C12 DL-Alaninate, N-D-Gluconyl Dodecyl DL-Alaninate] |
| 245 mm | 80 |  | CCCCCCCCCCCCOCCCNC(=O)[C@H](O)[C@H](O)[C@@H](O)[C@H](O)[C@H](O)CO [C12 Oxypropyl D-Glucoheptonamide] |
| 200 mm | 110 |  | dodecyl to pentadecyloxypropyl D-gluconamide [C12 -C15 Oxypropyl D-Gluconamide] |
| 0 mm | 0 |  | CCCCCCCCNC(=O)[C@H](O)[C@@H](O)[C@H](O)[C@H](O)CO [C8 D-Gluconamide] |
| Insoluble |  |  | CCCCCCCCCCCCNC(=O)[C@H](O)[C@H](O)[C@@H](O)[C@@H](O)[C@H](O)CO [C12 D-Glycero-L-Mannoheptonamide] |
| 203 mm | 101 |  | CCCCCCCCCCCCCCOCCCNC(=O)[C@H](O)[C@@H](O)[C@H](O)[C@H](O)CO [C14 Oxypropyl D-Gluconamide] |
| 159 mm | 152 | < 0 | CCCCCCCCCCCCOC(=O)CCNC(=O)[C@H](O)[C@@H](O)[C@H](O[C@@H]1O[C@H](CO)[C@H](O)[C@H](O)[C@H]1O)[C@H](O)CO [D-Lactobionyl C12 β-Alaninate, N-D-Lactobionyl Dodecyl β-Alaninate] |
| 166 mm | 155 | < 0 | Dodecyl to Pentadecyloxypropyl D-Lactobionamide [C12 -C15 Oxypropyl D-Lactobionamide] |
|  |  | 86 | CCCCCCCCCCCCNC(=O)C(O)C(O)C(O)C(O)C(O)C(O)CO [C12 D-Glucooctonamide] |
| 95 mm | 95 | 64 | CCCCCCCCCCCCCCCCNC(=O)[C@H](O)[C@@H](O)[C@H](O[C@@H]1O[C@H](CO)[C@H](O)[C@H](O)[C@H]1O)[C@H](O)CO [C16 D-Lactobionamide] |
| Insoluble |  |  | CCCCCCCCCCCCCCCCNC(=O)[C@H](O)[C@@H](O)[C@H](O)[C@H](O)CO [C16 D-Gluconamide] |
| Insoluble |  |  | CCCCCCCCCCCCNC(=O)[C@@H](O)[C@H](O)[C@H](O)[C@@H](O)CO [C12 L-Galactonamide] |
| Insoluble |  |  | CCCCCCCCCCCCCCNC(=O)[C@H](O)[C@@H](O)[C@H](O)[C@H](O)CO [C14 D-Gluconamide] |
| Insoluble |  |  | CCCCCCCCCCCCNC(=O)[C@H](O)[C@@H](O)[C@@H](O)[C@H](O)CO [C12 D-Galactonamide] |

| Compound | Foam Height Initial [1] | Foam Height Final [1] [mm] | Krafft Point (0.1%) [2] [°C] |
| --- | --- | --- | --- |
| Dodecyl to Pentadecyloxypropylaminopropyl D-Lactobionamide | 173 mm | 169 | < 0 |
| CCCCCCCCCCCCOCCOCCOC(=O)CNC(=O)[C@H](O)[C@@H](O)[C@H](O)[C@H](O)CO [N--D-Gluconyl C12 Di(oxyethyl) Glycinate, N-D-Gluconyl Dodecyldi(oxyethyl) Glycinate] | 203 mm | 169 |  |
